Key:
Micrococcus luteus = assay: Determination of minimum inhibitory concentration (MIC); assay type: cell-based; conditions: visual inspection after 24 hours at 37° C. in MHB; tested 0.25 to 32 μg/mL
[1] = tested on: methicillin resistant Staphylococcus aureus (MRSA); conditions: microbial species including MRSA; cited from earlier work

epidermicin-N101
minimum inhibitory concentration (growth of Micrococcus luteus) (Micrococcus luteus): 2 µg/mL
cytotoxicity to microbial species [1]: highly cytotoxic

From patent publication US20210206810A1, “Detection of Optimal Recombinants Using Fluorescent Protein Fusions” (priority 2019, published 2021)
